Measured values taken from patent EP4467141A1, “PYRAZOLO-QUINOLINES AS SELECTIVE INHIBITORS OF GENOTOXIC STRESS-INDUCED IKK/NF- KB PATHWAYS FOR CANCER THERAPY” (Max-Delbrück-Centrum für Molekulare Medizin in der …, priority 2023, dated 2024).

System: IKKγ
Assay: IKKγ phosphorylation (S85) and mono-ubiquitination after irradiation (immunoprecipitation / Western blot)
Type: cell-based
Conditions: irradiation (IR, 20 Gy); 1 hour pre-treatment
Description: Fig.7: (A) Immunoprecipitation of IKKγ from HEK293 lysates pre-treated for 1 hour with DMSO, MW01 or MW05, then irradiated (IR, 20 Gy) and lysed. (B) Western blot analysis of MEF cells pre-treated with DMSO, MW01, MW05 or ATM inhibitor KU55933 and irradiated (IR, 20 Gy). Lysates were subjected to SDS-PAGE/WB. The specific IKKγ S85 band (lower band) was identified by induction following irradiation and by sensitivity to ATMi and λ- phosphatase (λ-PP) treatment. (C) Western blot analysis of U2os cells pre-treated for 1 hour with the indicated substances, irradiated (IR, 20 Gy) and whole cell lysates probed for poly(ADP)-ribose. (D) Western blot analysis of cytoplasmic and nuclear fractions from U2-OS cells for p-ATM (S 1981), after 1 hour pre-treatment with DMSO, MW01 (10 µM), or MW05 (10 µM) and 45 min following irradiation (IR, 20 Gy). PARP1 and LDHA are used as loading controls for nuclear and cytoplasmic fractions respectively. […]
To identify inhibitors that selectively prevent DNA damage-induced NF-κB activation, we established a high-throughput screening platform quantifying p65 nuclear translocation, an essential step in NF-κB activation (Hayden and Ghosh, 2008). […] The IC50s of p65 nuclear translocation following both stimuli were determined for 21 compounds. […]

Row | SMILES | IR-induced IKKy phosphorylation and mono-ubiquitination
1 | COc1ccc2c(c1OC)c(=O)n1c3ccc(O)cc3c3ccnc2c31 [MW01, 5-Hydroxy-10,11-dimethoxy-9H-benzo[c]indolo[3,2,1-ij][1,5]naphthyridin-9-one] | inhibited
2 | COc1ccc2cc3c(N)nn(C(=O)c4cccc(N(C)C)c4)c3nc2c1 [MW05, (3-Amino-7-methoxypyrazolo[3,4-b]quinolin-1-yl)-[3-(dimethylamino)phenyl]methanone] | inhibited
